Results reported in PubChem BioAssay (NCI).
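Compound exposure: 48 hours, 5 concentrations, 96-well plates. The concentration for full growth arrest is given as TGI.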

Experiments:
Assay in all cases: NCI-60 cell line screen, 48 h
786-0 renal = tested on: 786-0 renal
A498 renal = tested on: A498 renal
A549 NSCLC = tested on: A549 NSCLC
ACHN renal = tested on: ACHN renal
BT-549 breast = tested on: BT-549 breast
CAKI-1 renal = tested on: CAKI-1 renal
CCRF-CEM leukemia = tested on: CCRF-CEM leukemia
COLO 205 colon = tested on: COLO 205 colon
DU-145 prostate = tested on: DU-145 prostate
EKVX NSCLC = tested on: EKVX NSCLC
HCC-2998 colon = tested on: HCC-2998 colon
HCT-116 colon = tested on: HCT-116 colon
HCT-15 colon = tested on: HCT-15 colon
HL-60(TB) leukemia = tested on: HL-60(TB) leukemia
HOP-62 NSCLC = tested on: HOP-62 NSCLC
HOP-92 NSCLC = tested on: HOP-92 NSCLC
HS 578T breast = tested on: HS 578T breast
HT29 colon = tested on: HT29 colon
IGROV1 ovarian = tested on: IGROV1 ovarian
K-562 leukemia = tested on: K-562 leukemia
KM12 colon = tested on: KM12 colon
LOX IMVI melanoma = tested on: LOX IMVI melanoma
M14 melanoma = tested on: M14 melanoma
MALME-3M melanoma = tested on: MALME-3M melanoma
MCF7 breast = tested on: MCF7 breast
MDA-MB-231 breast = tested on: MDA-MB-231 breast
MDA-MB-435 = tested on: MDA-MB-435
MDA-N = tested on: MDA-N
MOLT-4 leukemia = tested on: MOLT-4 leukemia
NCI-H23 lung = tested on: NCI-H23 lung
NCI-H460 lung = tested on: NCI-H460 lung
NCI-H522 lung = tested on: NCI-H522 lung
NCI/ADR-RES ovarian = tested on: NCI/ADR-RES ovarian
OVCAR-3 ovarian = tested on: OVCAR-3 ovarian
OVCAR-4 ovarian = tested on: OVCAR-4 ovarian
OVCAR-5 ovarian = tested on: OVCAR-5 ovarian
OVCAR-8 ovarian = tested on: OVCAR-8 ovarian
PC-3 prostate = tested on: PC-3 prostate
RPMI-8226 leukemia = tested on: RPMI-8226 leukemia
RXF 393 renal = tested on: RXF 393 renal
SF-268 CNS = tested on: SF-268 CNS
SF-295 CNS = tested on: SF-295 CNS
SF-539 CNS = tested on: SF-539 CNS
SK-MEL-2 melanoma = tested on: SK-MEL-2 melanoma
SK-MEL-28 melanoma = tested on: SK-MEL-28 melanoma
SK-MEL-5 melanoma = tested on: SK-MEL-5 melanoma
SK-OV-3 ovarian = tested on: SK-OV-3 ovarian
SN12C renal = tested on: SN12C renal
SNB-19 CNS = tested on: SNB-19 CNS
SNB-75 CNS = tested on: SNB-75 CNS
SR leukemia = tested on: SR leukemia
SW-620 colon = tested on: SW-620 colon
T-47D breast = tested on: T-47D breast
TK-10 renal = tested on: TK-10 renal
U251 CNS = tested on: U251 CNS
UACC-257 melanoma = tested on: UACC-257 melanoma
UACC-62 melanoma = tested on: UACC-62 melanoma
UO-31 renal = tested on: UO-31 renal
NCI-H226 lung = tested on: NCI-H226 lung

Measured: TGI

NC1=NCC(CN2CCOCC2)O1 (stereo not given)
not listed: NCI-H226 lung
> 100 µM: all other assays above

C=C(Br)C(C)(Br)CCC(Br)C(C)(C)Cl (stereo not given)
51.3 µM: EKVX NSCLC
27.9 µM: SR leukemia
72 µM: HS 578T breast
32.7 µM: HCC-2998 colon | HCT-15 colon | SF-295 CNS | TK-10 renal
29.7 µM: U251 CNS
39.7 µM: OVCAR-5 ovarian
30.4 µM: SW-620 colon
37.4 µM: UACC-257 melanoma
31.5 µM: MCF7 breast
36.1 µM: SF-268 CNS
54.2 µM: NCI/ADR-RES ovarian
37.5 µM: RXF 393 renal
36.5 µM: NCI-H23 lung
58.4 µM: RPMI-8226 leukemia
60.4 µM: SK-OV-3 ovarian
36.3 µM: PC-3 prostate
39.3 µM: MALME-3M melanoma
31.6 µM: SF-539 CNS
81.3 µM: NCI-H226 lung
39.8 µM: MDA-N
16.2 µM: HL-60(TB) leukemia
41.9 µM: MDA-MB-435
13.4 µM: CCRF-CEM leukemia
33.5 µM: 786-0 renal | OVCAR-3 ovarian
36.6 µM: NCI-H460 lung
20.4 µM: NCI-H522 lung
43.1 µM: DU-145 prostate
33.3 µM: SK-MEL-28 melanoma
39.5 µM: SN12C renal
51.6 µM: SK-MEL-2 melanoma
34.4 µM: OVCAR-4 ovarian | SNB-19 CNS
35.6 µM: ACHN renal
52.6 µM: BT-549 breast
39 µM: M14 melanoma
> 100 µM: A549 NSCLC
18.3 µM: IGROV1 ovarian
33.9 µM: SNB-75 CNS
40.7 µM: HT29 colon | UACC-62 melanoma
> 47.5 µM: K-562 leukemia
25 µM: HCT-116 colon
24.5 µM: MOLT-4 leukemia
34.8 µM: MDA-MB-231 breast
44.1 µM: T-47D breast
35.7 µM: OVCAR-8 ovarian
45.5 µM: A498 renal
39.4 µM: HOP-62 NSCLC
32 µM: KM12 colon | UO-31 renal
33.8 µM: COLO 205 colon
32.4 µM: SK-MEL-5 melanoma
30.2 µM: HOP-92 NSCLC

Cc1c(S(=O)(=O)c2ccccc2)c(N)n(CCN(C)C)c1C
not listed: HOP-62 NSCLC | LOX IMVI melanoma
> 100 µM: all other assays above

NS(=O)(=O)c1cc(Cl)c(NC(=S)NC(=O)Nc2ccc(Cl)c(Cl)c2)c(Cl)c1
84.4 µM: A498 renal
68.4 µM: HL-60(TB) leukemia
33.6 µM: COLO 205 colon
90.6 µM: SK-MEL-2 melanoma
86.4 µM: NCI-H522 lung
90.7 µM: SF-539 CNS
90.2 µM: UACC-62 melanoma
40.3 µM: SK-MEL-5 melanoma
53.8 µM: MCF7 breast
not listed: RPMI-8226 leukemia
> 100 µM: all other assays above
